ChEMBL document CHEMBL1153245, “A profile of the in vitro anti-tumor activity of imidazolium-based ionic liquids” (2010)

Columns and labels:
Assay type in all cases: functional
SF-268 = test: Anticancer activity against human SF268 cells after 48 hrs by sulforhodamine B assay; conditions: Homo sapiens, SF-268, 48 h; for CC50: read-out: LC50 (the source's name)
IGROV-1 = test: Anticancer activity against human IGROV1 cells after 48 hrs by sulforhodamine B assay; conditions: IGROV-1, 48 h; for CC50: read-out: LC50 (the source's name)
SK-MEL-28 = test: Anticancer activity against human SK-MEL-28 cells after 48 hrs by sulforhodamine B assay; conditions: Homo sapiens, SK-MEL-28, 48 h
HT-29 = test: Anticancer activity against human HT-29 cells after 48 hrs by sulforhodamine B assay; conditions: Homo sapiens, HT-29, 48 h; for CC50: read-out: LC50 (the source's name)
[1] = Anticancer activity against human Hs 578T cells after 48 hrs by sulforhodamine B assay; conditions: Homo sapiens, Hs-578T, 48 h; for CC50: read-out: LC50 (the source's name)
SF-539 = test: Anticancer activity against human SF539 cells after 48 hrs by sulforhodamine B assay; conditions: Homo sapiens, SF-539, 48 h
EKVX = test: Anticancer activity against human EKVX cells after 48 hrs by sulforhodamine B assay; conditions: Homo sapiens, EKVX, 48 h; for CC50: read-out: LC50 (the source's name)
T47D = test: Anticancer activity against human T47D cells after 48 hrs by sulforhodamine B assay; conditions: Homo sapiens, T47D, 48 h; for CC50: read-out: LC50 (the source's name)
HL-60(TB) = test: Anticancer activity against human HL-60(TB) cells after 48 hrs by sulforhodamine B assay; conditions: Homo sapiens, HL-60, 48 h; for CC50: read-out: LC50 (the source's name)
OVCAR-4 = test: Anticancer activity against human OVCAR4 cells after 48 hrs by sulforhodamine B assay; conditions: Homo sapiens, OVCAR-4, 48 h; for CC50: read-out: LC50 (the source's name)
SK-MEL-5 = test: Anticancer activity against human SK-MEL-5 cells after 48 hrs by sulforhodamine B assay; conditions: Homo sapiens, SK-MEL-5, 48 h; for CC50: read-out: LC50 (the source's name)
SNB-19 = test: Anticancer activity against human SNB19 cells after 48 hrs by sulforhodamine B assay; conditions: Homo sapiens, SNB-19, 48 h; for CC50: read-out: LC50 (the source's name)
UACC-62 = test: Anticancer activity against human UACC62 cells after 48 hrs by sulforhodamine B assay; conditions: Homo sapiens, UACC-62, 48 h
LOX IMVI = test: Anticancer activity against human LOXIMVI cells after 48 hrs by sulforhodamine B assay; conditions: Homo sapiens, LOX IMVI, 48 h; for CC50: read-out: LC50 (the source's name)
A549 = test: Anticancer activity against human A549 cells after 48 hrs by sulforhodamine B assay; conditions: Homo sapiens, A549, 48 h
Malme-3M = test: Anticancer activity against human MALME-3M cells after 48 hrs by sulforhodamine B assay; conditions: Homo sapiens, Malme-3M, 48 h
MOLT-4 = test: Anticancer activity against human MOLT4 cells after 48 hrs by sulforhodamine B assay; conditions: Homo sapiens, MOLT-4, 48 h
MDA-MB-435 = test: Anticancer activity against human MDA-MB-435 cells after 48 hrs by sulforhodamine B assay; conditions: Homo sapiens, MDA-MB-435, 48 h; for CC50: read-out: LC50 (the source's name)
SK-MEL-2 = test: Anticancer activity against human SK-MEL-2 cells after 48 hrs by sulforhodamine B assay; conditions: SK-MEL-2, 48 h
CAKI-1 = test: Anticancer activity against human Caki1 cells after 48 hrs by sulforhodamine B assay; conditions: Homo sapiens, CAKI-1, 48 h
OVCAR-5 = test: Anticancer activity against human OVCAR5 cells after 48 hrs by sulforhodamine B assay; conditions: Homo sapiens, OVCAR-5, 48 h; for CC50: read-out: LC50 (the source's name)
HCT-15 = test: Anticancer activity against human HCT15 cells after 48 hrs by sulforhodamine B assay; conditions: Homo sapiens, HCT-15, 48 h; for CC50: read-out: LC50 (the source's name)
K562 = test: Anticancer activity against human K562 cells after 48 hrs by sulforhodamine B assay; conditions: Homo sapiens, K562, 48 h; for CC50: read-out: LC50 (the source's name)
NCI/ADR-RES = test: Anticancer activity against human NCI/ADR-RES cells after 48 hrs by sulforhodamine B assay; conditions: Homo sapiens, NCI/ADR-RES, 48 h
BT-549 = test: Anticancer activity against human BT549 cells after 48 hrs by sulforhodamine B assay; conditions: Homo sapiens, BT-549, 48 h; for CC50: read-out: LC50 (the source's name)
NCI-H322M = test: Anticancer activity against human NCI-H322M cells after 48 hrs by sulforhodamine B assay; conditions: Homo sapiens, NCI-H322M, 48 h
ACHN = test: Anticancer activity against human ACHN cells after 48 hrs by sulforhodamine B assay; conditions: Homo sapiens, ACHN, 48 h
[2] = Anticancer activity against human […] cells after 48 hrs by sulforhodamine B assay; conditions: Homo sapiens, RPMI8266, 48 h; for CC50: read-out: LC50 (the source's name)
MDA-MB-231 = test: Anticancer activity against human MDA-MB-231 cells after 48 hrs by sulforhodamine B assay; conditions: Homo sapiens, MDA-MB-231, 48 h; for CC50: read-out: LC50 (the source's name)
786-0 = test: Anticancer activity against human 786-0 cells after 48 hrs by sulforhodamine B assay; conditions: Homo sapiens, 786-0, 48 h
NCI-H522 = test: Anticancer activity against human NCI-H522 cells after 48 hrs by sulforhodamine B assay; conditions: Homo sapiens, NCI-H522, 48 h
CCRF-CEM = test: Anticancer activity against human CCRF-CEM cells after 48 hrs by sulforhodamine B assay; conditions: Homo sapiens, CCRF-CEM, 48 h

CCCCCCCCCCCCCCCCCC[n+]1ccn(C)c1.FC(F)(F)C(F)(F)[P-](F)(F)(F)(C(F)(F)C(F)(F)F)C(F)(F)C(F)(F)F
GI50 (SF-268): 481 nM | CC50 (SF-268): 5790 nM | GI50 (IGROV-1): 219 nM | CC50 (IGROV-1): 1440 nM | GI50 (SK-MEL-28): 374 nM | LC50 (SK-MEL-28): 3980 nM | GI50 (HT-29): 315 nM | CC50 (HT-29): > 100000 nM | GI50 [1]: 287 nM | CC50 [1]: 5430 nM | GI50 (SF-539): 288 nM | LC50 (lethal concentration, 50% cell kill) (SF-539): 4190 nM | GI50 (EKVX): 346 nM | CC50 (EKVX): 8910 nM | GI50 (T47D): 282 nM | CC50 (T47D): 63700 nM | GI50 (HL-60(TB)): 238 nM | CC50 (HL-60(TB)): > 100000 nM | GI50 (OVCAR-4): 320 nM | CC50 (OVCAR-4): > 100000 nM | GI50 (SK-MEL-5): 313 nM | CC50 (SK-MEL-5): 3310 nM | GI50 (SNB-19): 422 nM | CC50 (SNB-19): 3950 nM | GI50 (UACC-62): 500 nM | LC50 (UACC-62): 4660 nM | GI50 (LOX IMVI): 164 nM | CC50 (LOX IMVI): 678 nM | GI50 (A549): 458 nM | LC50 (concentration killing 50% of cells) (A549): > 100000 nM | GI50 (Malme-3M): 271 nM | LC50 (concentration killing 50% of cells) (Malme-3M): 4250 nM | GI50 (MOLT-4): 336 nM | LC50 (MOLT-4): > 100000 nM | GI50 (MDA-MB-435): 344 nM | CC50 (MDA-MB-435): 2930 nM | GI50 (SK-MEL-2): 372 nM | LC50 (SK-MEL-2): > 100000 nM | GI50 (CAKI-1): 293 nM | LC50 (CAKI-1): 7460 nM | GI50 (OVCAR-5): 489 nM | CC50 (OVCAR-5): 32700 nM | GI50 (HCT-15): 309 nM | CC50 (HCT-15): 4410 nM | GI50 (K562): 238 nM | CC50 (K562): > 100000 nM | GI50 (NCI/ADR-RES): 412 nM | LC50 (NCI/ADR-RES): 12500 nM | GI50 (BT-549): 334 nM | CC50 (BT-549): 4200 nM | GI50 (NCI-H322M): 406 nM | LC50 (NCI-H322M): 5540 nM | GI50 (ACHN): 281 nM | LC50 (ACHN): 3550 nM | GI50 [2]: 86 nM | CC50 [2]: > 100000 nM | GI50 (MDA-MB-231): 378 nM | CC50 (MDA-MB-231): 4820 nM | GI50 (786-0): 425 nM | LC50 (50% lethal concentration) (786-0): 5360 nM | GI50 (NCI-H522): 285 nM | LC50 (NCI-H522): 4320 nM | GI50 (CCRF-CEM): 324 nM | LC50 (CCRF-CEM): > 100000 nM

CCCCCCCCCCCCCCCC[n+]1ccn(C)c1.[Cl-]
GI50 (SF-268): 1020 nM | CC50 (SF-268): 4930 nM | GI50 (IGROV-1): 48 nM | CC50 (IGROV-1): > 100000 nM | GI50 (SK-MEL-28): 948 nM | GI50 (HT-29): 311 nM | CC50 (HT-29): 5060 nM | GI50 [1]: 538 nM | CC50 [1]: 6110 nM | GI50 (SF-539): 1340 nM | GI50 (EKVX): 358 nM | CC50 (EKVX): 6770 nM | GI50 (T47D): 564 nM | CC50 (T47D): > 100000 nM | GI50 (HL-60(TB)): 131 nM | CC50 (HL-60(TB)): 816 nM | GI50 (OVCAR-4): 594 nM | CC50 (OVCAR-4): 7200 nM | GI50 (SK-MEL-5): 461 nM | CC50 (SK-MEL-5): 4190 nM | GI50 (SNB-19): 1220 nM | CC50 (SNB-19): 9590 nM | GI50 (UACC-62): 1040 nM | GI50 (LOX IMVI): 334 nM | CC50 (LOX IMVI): 3780 nM | GI50 (A549): 1070 nM | GI50 (Malme-3M): 549 nM | GI50 (MOLT-4): 306 nM | GI50 (MDA-MB-435): 482 nM | CC50 (MDA-MB-435): 6980 nM | GI50 (CAKI-1): 385 nM | GI50 (OVCAR-5): 912 nM | CC50 (OVCAR-5): 7240 nM | GI50 (HCT-15): 1000 nM | CC50 (HCT-15): 4650 nM | GI50 (K562): 190 nM | CC50 (K562): 3490 nM | GI50 (NCI/ADR-RES): 2100 nM | GI50 (BT-549): 1040 nM | CC50 (BT-549): 5920 nM | GI50 (NCI-H322M): 1740 nM | GI50 (ACHN): 832 nM | GI50 [2]: 240 nM | CC50 [2]: 764 nM | GI50 (MDA-MB-231): 616 nM | CC50 (MDA-MB-231): 4550 nM | GI50 (786-0): 1180 nM | GI50 (NCI-H522): 1010 nM | GI50 (CCRF-CEM): 164 nM
